According to patent publication US7902195B2, “Pyridine [3,4-b] pyrazinones” (Pharmacia & Upjohn Company LLC, priority 2006, dated 2011):

molecular target: T1, PDE5 enzyme isolated from human platelets (Homo sapiens, UniProt O76074); experiment: Alternative human platelet PDE5 enzyme inhibition scintillation proximity assay (Method 2); assay type: biochemical; settings: cGMP substrate 50 nM, 60 minutes at room temperature
T1 construct: The PDE5 enzyme for use in the assay can be obtained from human platelets; from tissue; host or cells: human platelets
Source text: The IC50 of a test compound can be measured using an in vitro assay using PDE5 enzyme isolated from human platelets. The IC50 is the concentration of test compound required to inhibit the hydrolysis of cGMP to GMP by the PDE5 enzyme by 50% relative to the activity of uninhibited controls. The PDE5 enzyme for use in the assay can be obtained from human platelets by appropriate modification of the method of Thompson, W J et al.; Biochemistry 18(23), 5228-5237, 1979, as described by Ballard S A et al.; J. Urology 159(6), 2164-2171, 1998. The PDE5 enzyme so obtained can be used to catalyze the hydrolysis of [^3H]cGMP (Amersham Biosciences) to 5′ nucleotide [^3H]GMP. The [^3H]GMP binds to yttrium silicate SPA beads (Amersham Biosciences) and is detected by scintillation counting. More specifically, the effect of a test compound at different concentrations can be evaluated in the assay by contacting the compound with a fixed amount of PDE5 enzyme in the presence of substrate (cGMP […] in a 3:1 ratio unlabelled to [^3H]-labeled). Scintillation counting can be used as described above to determine relative PDE5 enzyme activity. The inhibition of PDE5 enzyme activity is then calculated relative to total PDE5 enzyme activity of uninhibited controls.
Method 2: Alternative Human Platelet PDE5 Enzyme Inhibition Scintillation Proximity Assay
PDE5 IC50 Assay: 96-Well Microtiter Plate Format
Buffer A: 20 mM Tris-HCl, 5 mM MgCl2, pH 7.4
Buffer B: 2 mg/ml BSA in Buffer A (enzyme buffer)
cGMP substrate: Final concentration of 50 nM in assay
The amount of ^3H-labeled substrate added depends upon the specific activity of [^3H]cGMP, and it is diluted in Buffer A.
PDE enzyme: Prepared in Buffer B. The dilution factor is determined by enzyme activity.
SPA beads: 4 mg/ml suspension prepared in dH2O.
Stocks of standard and test compound are prepared at 2 mM in 100% DMSO. The test compound is serially diluted in a dilution plate using an 8-point ⅕ log dilution format such that the starting concentration in the assay is 2 μM for an initial IC50 screen. 27 μl of Buffer A are added to the wells of the assay plates. From the dilution plate, 3 μl of diluted compound is delivered in duplicate or 3 μl of 100% DMSO (for positive and negative controls) are added. 30 μl of enzyme are added. For the negative control wells, Buffer B is substituted in place of the enzyme. 30 μl of labeled substrate are added to all wells.
After incubating for 60 minutes at room temperature, the reaction is stopped with the addition of 30 μl of the yttrium silicate beads. These beads are dense and require constant agitation while being added to the plate. The plates are sealed and shaken on a plate shaker for fifteen minutes to allow the beads to bind the GMP product.
After allowing the beads to settle for 30 minutes, plates are read on a NXT TopCount scintillation counter and the data are analyzed as follows. Percent inhibition values are calculated using the means of the 0% and 100% controls on each plate. The estimates of the 4-parameters of the logistic, sigmoid dose-response model are then calculated using the well-level percent inhibition value for the compound. The formula for the four-parameter logistic model may be expressed as Y=((a−d)/(1+(X/c)^b))+d, where Y is the response, X is the concentration, a is the lower asymptote (minimum response), d is the upper asymptote (maximum response), c is the model IC50 (in the same units as X), and b is the slope (as described in De Lean, A., P. J. Munson, and D. Rodbard (“Simultaneous analysis of families of sigmoidal curves: application to bioassay, radioligand assay, and physiological dose-response curves.” Am. J. Physiol. 235(2): E97-E102, 1978). These estimates are used to calculate the concentration that corresponds to 50% inhibition.
Compounds were tested in accordance with Method 2 above yielding the IC50 values described in Table C.

IC50 [nM] | Compound
0.248 | CCCOCCn1c(=O)c(N2CCN(CCO)[C@@H](C)C2)nc2cnc(-c3ccc(OC)nc3)cc21 [Example 9, 3-[(3S)-4-(2-hydroxyethyl)-3-methylpiperazin-1-yl]-7-(6-methoxypyridin-3-yl)-1-(2-propoxyethyl)pyrido[3,4-b]pyrazin-2(1H)-one]
0.421 | CCCOCCn1c(=O)c(N2CCC(O)C2)nc2cnc(-c3ccc(OC)nc3)cc21 (stereo not shown) [Example 42, 3-(3-hydroxypyrrolidin-1-yl)-7-(6-methoxypyridin-3-yl)-1-(2-Propoxyethyl)pyrido[3,4-b]pyrazin-2(1H)-one]
102 | CCCOCCn1c(=O)c(N2CCN(CCO)CC2)nc2cnc(-c3ccc(S(=O)(=O)CC)cc3)cc21 [Example 19, 7-(4-(ethylsulfonyl)phenyl)-3-(4-(2-hydroxyethyl)piperazin-1-yl)-1-(2-propoxyethyl)pyrido[3,4-b]pyrazin-2(1H)-one]
0.313 | CCCOCCn1c(=O)c(N2CCCC(CO)C2)nc2cnc(-c3ccc(OC)nc3)cc21 (stereo not shown) [Example 6, 3-[3-(hydroxymethyl)piperidin-1-yl]-7-(6-methoxypyridin-3-yl)-1-(2-propoxyethyl)pyrido[3,4-b]pyrazin-2(1H)-one]
2.38 | CCCOCCn1c(=O)c(N2C[C@H]3C[C@@H]2CN3)nc2cnc(-c3ccc(OC)nc3)cc21 [Example 2, 3-[(1R,4R)-2,5-diazabicyclo[2.2.1]hept-2-yl]-7-(6-methoxypyridin-3-yl)-1-(2-propoxyethyl)pyrido[3,4-b]pyrazin-2(1H)-one]
13.6 | CCCOCCn1c(=O)c(N2CCN(CCO)CC2)nc2cnc(-c3ccc(OC)c(F)c3)cc21 [Example 33, 7-(3-fluoro-4-methoxyphenyl)-3-(4-(2-hydroxyethyl)piperazin-1-yl)-1-(2-propoxyethyl)pyrido[3,4-b]pyrazin-2(1H)-one]
12.6 | CCCOCCn1c(=O)c(N2CCN(CCO)CC2)nc2cnc(-c3cc(Cl)ccc3F)cc21 [Example 34, 7-(5-chloro-2-fluorophenyl)-3-(4-(2-hydroxyethyl)piperazin-1-yl)-1-(2-propoxyethyl)pyrido[3,4-b]pyrazin-2(1H)-one]
> 2000 | CCCOCCn1c(=O)c(N2CCN(CCO)CC2)nc2cnc(-c3cccc4cnccc34)cc21 [Example 22, 3-(4-(2-hydroxyethyl)piperazin-1-yl)-7-(isoquinolin-5-yl)-1-(2-propoxyethyl)pyrido[3,4-b]pyrazin-2(1H)-one]
1.01 | CCCOCCn1c(=O)c(N2CCOCC2)nc2cnc(-c3ccc(OC)nc3)cc21 [Example 3, 7-(6-methoxypyridin-3-yl)-3-morpholin-4-yl-1-(2-propoxyethyl)pyrido[3,4-b]pyrazin-2(1H)-one]
47.1 | CCCOCCn1c(=O)c(N2CCN(CCO)CC2)nc2cnc(-c3cccc(F)c3F)cc21 [Example 26, 7-(2,3-difluorophenyl)-3-(4-(2-hydroxyethyl)piperazin-1-yl)-1-(2-propoxyethyl)pyrido[3,4-b]pyrazin-2(1H)-one]
0.217 | CCCOCCn1c(=O)c(N2CCN(CC)CC2)nc2cnc(-c3ccc(OC)nc3)cc21 [Example 39, 3-(4-ethylpiperazin-1-yl)-7-(6-methoxypyridin-3-yl)-1-(2-propoxyethyl)pyrido[3,4-b]pyrazin-2(1H)-one]
0.193 | CCCOCCn1c(=O)c(N2CC(C)N(CCCO)C(C)C2)nc2cnc(-c3ccc(OC)nc3)cc21 (stereo not shown) [Example 10, 3-[4-(3-hydroxypropyl)-3,5-dimethylpiperazin-1-yl]-7-(6-methoxypyridin-3-yl)-1-(2-propoxyethyl)pyrido[3,4-b]pyrazin-2(1H)-one]
29.9 | CCCOCCn1c(=O)c(N2CCN(CCO)CC2)nc2cnc(-c3ccc(F)cc3F)cc21 [Example 18, 7-(2,4-difluorophenyl)-3-(4-(2-hydroxyethyl)piperazin-1-yl)-1-(2-propoxyethyl)pyrido[3,4-b]pyrazin-2(1H)-one]
0.296 | CCCOCCn1c(=O)c(N2CCCC(C(N)=O)C2)nc2cnc(-c3ccc(OC)nc3)cc21 (stereo not shown) [Example 40, 1-(1,2-dihydro-7-(6-methoxypyridin-3-yl)-2-oxo-1-(2-propoxyethyl)pyrido[3,4-b]pyrazin-3-yl)piperidine-3-carboxamide]
311 | CCCOCCn1c(=O)c(N2CCN(CCO)CC2)nc2cnc(-c3cccc(CO)c3)cc21 [Example 30, 3-(4-(2-hydroxyethyl)piperazin-1-yl)-7-(3-(hydroxymethyl)phenyl)-1-(2-propoxyethyl)pyrido[3,4-b]pyrazin-2(1H)-one]
1.35 | CCCOCCn1c(=O)c(N2CCN(CCO)CC2)nc2cnc(-c3ccc(Cl)cc3)cc21 [Example 13, 7-(4-chlorophenyl)-3-(4-(2-hydroxyethyl)piperazin-1-yl)-1-(2-propoxyethyl)pyrido[3,4-b]pyrazin-2(1H)-one]
3.34 | CCCOCCn1c(=O)c(N2CCN(CCO)CC2)nc2cnc(-c3cccc(Cl)c3)cc21 [Example 16, 7-(3-chlorophenyl)-3-(4-(2-hydroxyethyl)piperazin-1-yl)-1-(2-propoxyethyl)pyrido[3,4-b]pyrazin-2(1H)-one]
832 | CCCOCCn1c(=O)c(N2CCN(CCO)CC2)nc2cnc(-c3ccc(O)cc3)cc21 [Example 14, 3-(4-(2-hydroxyethyl)piperazin-1-yl)-7-(4-hydroxyphenyl)-1-(2-propoxyethyl)pyrido[3,4-b]pyrazin-2(1H)-one]
0.177 | CCCOCCn1c(=O)c(N2CCN(CCCO)CC2)nc2cnc(-c3ccc(OC)nc3)cc21 [Example 11, 3-[4-(3-hydroxypropyl)piperazin-1-yl]-7-(6-methoxypyridin-3-yl)-1-(2-propoxyethyl)pyrido[3,4-b]pyrazin-2(1H)-one]
3.28 | CCCOCCn1c(=O)c(N2CCNCC2)nc2cnc(-c3ccc(OC)nc3)cc21 [Example 1, 7-(6-methoxypyridin-3-yl)-3-(piperazin-1-yl)-1-(2-propoxyethyl)pyrido[3,4-b]pyrazin-2(1H)-one]
0.208 | CCCOCCn1c(=O)c(N2CCN(CC(C)(C)O)CC2)nc2cnc(-c3ccc(OC)nc3)cc21 [Example 43, 3-(4-(2-hydroxy-2-methylpropyl)piperazin-1-yl)-7-(6-methoxypyridin-3-yl)-1-(2-propoxyethyl)pyrido[3,4-b]pyrazin-2(1H)-one]
7.71 | CCCOCCn1c(=O)c(N2CCN(CCO)CC2)nc2cnc(-c3ccc(OC)cc3)cc21 [Example 17, 3-(4-(2-hydroxyethyl)piperazin-1-yl)-7-(4-methoxyphenyl)-1-(2-propoxyethyl)pyrido[3,4-b]pyrazin-2(1H)-one]
1.59 | CCCOCCn1c(=O)c(N2CCN(CCO)CC2)nc2cnc(-c3cccc(OC)c3F)cc21 [Example 20, 7-(2-fluoro-3-methoxyphenyl)-3-(4-(2-hydroxyethyl)piperazin-1-yl)-1-(2-propoxyethyl)pyrido[3,4-b]pyrazin-2(1H)-one]
1400 | CCCOCCn1c(=O)c(N2CCN(CCO)CC2)nc2cnc(-c3ccc(OCC)cc3)cc21 [Example 24, 7-(4-ethoxyphenyl)-3-(4-(2-hydroxyethyl)piperazin-1-yl)-1-(2-propoxyethyl)pyrido[3,4-b]pyrazin-2(1H)-one]
1.69 | CCCOCCn1c(=O)c(N2CCN(CCO)CC2)nc2cnc(-c3ccc(OC)c(C)c3)cc21 [Example 35, 3-(4-(2-hydroxyethyl)piperazin-1-yl)-7-(4-methoxy-3-methylphenyl)-1-(2-propoxyethyl)pyrido[3,4-b]pyrazin-2(1H)-one]
